In PubChem BioAssay (NCI):
“And” between values parts separate entries of the source, which are not always exact repeats. Identical values can stand only once.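 How tested: cells in 96-well plates exposed to compound for 48 hours at five concentrations. GI50 = concentration required for 50% inhibition of growth. At the TGI there is no net growth.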

Legend:
Assay in all cases: NCI tumour cell line growth inhibition, 48 h
MCF7 breast = test system: MCF7 breast
ACHN renal = test system: ACHN renal
HOP-62 NSCLC = test system: HOP-62 NSCLC
CAKI-1 renal = test system: CAKI-1 renal
OVCAR-5 ovarian = test system: OVCAR-5 ovarian
UACC-62 melanoma = test system: UACC-62 melanoma
HL-60(TB) leukemia = test system: HL-60(TB) leukemia
SK-OV-3 ovarian = test system: SK-OV-3 ovarian
MDA-MB-435 = test system: MDA-MB-435
MALME-3M melanoma = test system: MALME-3M melanoma
RXF 393 renal = test system: RXF 393 renal
NCI-H460 lung = test system: NCI-H460 lung
SW-620 colon = test system: SW-620 colon
U251 CNS = test system: U251 CNS
M14 melanoma = test system: M14 melanoma
NCI-H226 lung = test system: NCI-H226 lung
SNB-19 CNS = test system: SNB-19 CNS
PC-3 prostate = test system: PC-3 prostate
SK-MEL-2 melanoma = test system: SK-MEL-2 melanoma
SK-MEL-28 melanoma = test system: SK-MEL-28 melanoma
A549 NSCLC = test system: A549 NSCLC
SF-539 CNS = test system: SF-539 CNS
K-562 leukemia = test system: K-562 leukemia
HOP-92 NSCLC = test system: HOP-92 NSCLC
NCI/ADR-RES ovarian = test system: NCI/ADR-RES ovarian
786-0 renal = test system: 786-0 renal
UO-31 renal = test system: UO-31 renal
MOLT-4 leukemia = test system: MOLT-4 leukemia
COLO 205 colon = test system: COLO 205 colon
OVCAR-4 ovarian = test system: OVCAR-4 ovarian
BT-549 breast = test system: BT-549 breast
SF-295 CNS = test system: SF-295 CNS
SR leukemia = test system: SR leukemia
HS 578T breast = test system: HS 578T breast
HCT-15 colon = test system: HCT-15 colon
DU-145 prostate = test system: DU-145 prostate
HCC-2998 colon = test system: HCC-2998 colon
HCT-116 colon = test system: HCT-116 colon
NCI-H522 lung = test system: NCI-H522 lung
OVCAR-8 ovarian = test system: OVCAR-8 ovarian
SN12C renal = test system: SN12C renal
IGROV1 ovarian = test system: IGROV1 ovarian
EKVX NSCLC = test system: EKVX NSCLC
NCI-H23 lung = test system: NCI-H23 lung
SF-268 CNS = test system: SF-268 CNS
MDA-MB-231 breast = test system: MDA-MB-231 breast
CCRF-CEM leukemia = test system: CCRF-CEM leukemia
RPMI-8226 leukemia = test system: RPMI-8226 leukemia
HT29 colon = test system: HT29 colon
UACC-257 melanoma = test system: UACC-257 melanoma
OVCAR-3 ovarian = test system: OVCAR-3 ovarian
TK-10 renal = test system: TK-10 renal
SK-MEL-5 melanoma = test system: SK-MEL-5 melanoma
KM12 colon = test system: KM12 colon
SNB-75 CNS = test system: SNB-75 CNS
A498 renal = test system: A498 renal
LOX IMVI melanoma = test system: LOX IMVI melanoma

O=c1cc(-c2cccc3ccccc23)[nH]c2ncccc12
TGI (MCF7 breast): 4.25 µM
GI50 (ACHN renal): 0.0425 µM
TGI (ACHN renal): > 100 µM
TGI (HOP-62 NSCLC): > 100 µM
TGI (CAKI-1 renal): > 100 µM
TGI (OVCAR-5 ovarian): > 100 µM
TGI (UACC-62 melanoma): > 100 µM
TGI (HL-60(TB) leukemia): 0.0315 µM
GI50 (SK-OV-3 ovarian): 0.0147 µM
TGI (MDA-MB-435): 0.00404 µM
TGI (MALME-3M melanoma): 0.0462 µM
GI50 (RXF 393 renal): 11.9 µM
GI50 (NCI-H460 lung): 0.0392 µM
TGI (NCI-H460 lung): > 100 µM
TGI (SW-620 colon): > 100 µM
GI50 (U251 CNS): 0.0103 µM
TGI (U251 CNS): > 100 µM
GI50 (M14 melanoma): 0.0275 µM
TGI (M14 melanoma): > 100 µM
TGI (NCI-H226 lung): > 100 µM
GI50 (SNB-19 CNS): 0.0366 µM
TGI (SNB-19 CNS): > 100 µM
TGI (PC-3 prostate): > 100 µM
GI50 (SK-MEL-2 melanoma): 0.0136 µM
TGI (SK-MEL-2 melanoma): > 100 µM
GI50 (SK-MEL-28 melanoma): 0.0158 µM
TGI (SK-MEL-28 melanoma): > 100 µM
GI50 (A549 NSCLC): 0.0216 µM
TGI (A549 NSCLC): > 100 µM
GI50 (SF-539 CNS): 0.0159 µM
TGI (K-562 leukemia): > 100 µM
GI50 (HOP-92 NSCLC): 0.773 µM
TGI (HOP-92 NSCLC): 70.1 µM
GI50 (NCI/ADR-RES ovarian): 0.0173 µM
TGI (NCI/ADR-RES ovarian): > 100 µM
TGI (786-0 renal): > 100 µM
GI50 (UO-31 renal): 0.0741 µM
TGI (UO-31 renal): > 100 µM
GI50 (MOLT-4 leukemia): 0.0449 µM
TGI (MOLT-4 leukemia): > 100 µM
TGI (COLO 205 colon): 0.0587 µM and 0.136 µM
GI50 (OVCAR-4 ovarian): 77.6 µM
TGI (OVCAR-4 ovarian): > 100 µM
TGI (BT-549 breast): > 100 µM
TGI (SF-295 CNS): > 100 µM
TGI (SR leukemia): > 100 µM
GI50 (HS 578T breast): 0.0186 µM
TGI (HS 578T breast): > 100 µM
TGI (HCT-15 colon): 10.3 µM
TGI (DU-145 prostate): > 100 µM
GI50 (HCC-2998 colon): 0.0313 µM
TGI (HCC-2998 colon): 0.424 µM and 1.54 µM
TGI (HCT-116 colon): 21.3 µM
GI50 (NCI-H522 lung): 0.0158 µM
TGI (NCI-H522 lung): 0.0698 µM and 0.0767 µM
GI50 (OVCAR-8 ovarian): 0.0338 µM
TGI (OVCAR-8 ovarian): 0.889 µM and 0.453 µM
GI50 (SN12C renal): 0.149 µM
TGI (SN12C renal): > 100 µM
GI50 (IGROV1 ovarian): 0.0417 µM
TGI (IGROV1 ovarian): > 100 µM
GI50 (EKVX NSCLC): 0.0239 µM
TGI (EKVX NSCLC): > 100 µM
TGI (NCI-H23 lung): > 100 µM
GI50 (SF-268 CNS): 10.1 µM
TGI (SF-268 CNS): > 100 µM
GI50 (MDA-MB-231 breast): 0.0479 µM
TGI (MDA-MB-231 breast): > 100 µM
GI50 (CCRF-CEM leukemia): 0.0201 µM
TGI (CCRF-CEM leukemia): > 100 µM
TGI (RPMI-8226 leukemia): > 100 µM
TGI (HT29 colon): 0.0608 µM

COc1ccc(Nc2nnc(-c3cc(O)ccc3O)s2)cc1
GI50 (MCF7 breast): 11.4 µM
TGI (MCF7 breast): 35.4 µM
GI50 (ACHN renal): > 50 µM
TGI (ACHN renal): > 50 µM
GI50 (CAKI-1 renal): 34.2 µM
TGI (CAKI-1 renal): > 50 µM
GI50 (UACC-257 melanoma): > 50 µM
TGI (UACC-257 melanoma): > 50 µM
GI50 (OVCAR-3 ovarian): > 50 µM
TGI (OVCAR-3 ovarian): > 50 µM
GI50 (OVCAR-5 ovarian): > 50 µM
TGI (OVCAR-5 ovarian): > 50 µM
GI50 (UACC-62 melanoma): 9.89 µM
TGI (UACC-62 melanoma): 20.8 µM
GI50 (HL-60(TB) leukemia): 4.57 µM
TGI (HL-60(TB) leukemia): > 50 µM
GI50 (MDA-MB-435): 9.22 µM
TGI (MDA-MB-435): 19.1 µM
GI50 (RXF 393 renal): 30.6 µM
TGI (RXF 393 renal): > 50 µM
GI50 (NCI-H460 lung): 40.4 µM
TGI (NCI-H460 lung): > 50 µM
GI50 (TK-10 renal): 48.4 µM
TGI (TK-10 renal): > 50 µM
GI50 (SW-620 colon): 11.3 µM
TGI (SW-620 colon): 22.8 µM
GI50 (U251 CNS): 16.7 µM
TGI (U251 CNS): > 50 µM
GI50 (M14 melanoma): > 50 µM
TGI (M14 melanoma): > 50 µM
GI50 (NCI-H226 lung): 11 µM
TGI (NCI-H226 lung): 39.9 µM
GI50 (SNB-19 CNS): > 50 µM
TGI (SNB-19 CNS): > 50 µM
GI50 (PC-3 prostate): 34.4 µM
TGI (PC-3 prostate): > 50 µM
GI50 (SK-MEL-2 melanoma): 23.1 µM
TGI (SK-MEL-2 melanoma): > 50 µM
GI50 (SK-MEL-28 melanoma): 27.1 µM
TGI (SK-MEL-28 melanoma): > 50 µM
GI50 (A549 NSCLC): > 50 µM
TGI (A549 NSCLC): > 50 µM
GI50 (SF-539 CNS): 12.6 µM
TGI (SF-539 CNS): 25.8 µM
GI50 (K-562 leukemia): 17.6 µM
TGI (K-562 leukemia): > 50 µM
GI50 (NCI/ADR-RES ovarian): > 50 µM
TGI (NCI/ADR-RES ovarian): > 50 µM
GI50 (786-0 renal): > 50 µM
TGI (786-0 renal): > 50 µM
GI50 (UO-31 renal): 47.3 µM
TGI (UO-31 renal): > 50 µM
GI50 (SK-MEL-5 melanoma): 10.3 µM
TGI (SK-MEL-5 melanoma): 27.2 µM
GI50 (MOLT-4 leukemia): 6.5 µM
TGI (MOLT-4 leukemia): 20.6 µM
GI50 (COLO 205 colon): > 50 µM
TGI (COLO 205 colon): > 50 µM
GI50 (OVCAR-4 ovarian): 11.7 µM
TGI (OVCAR-4 ovarian): > 50 µM
GI50 (KM12 colon): 32.6 µM
TGI (KM12 colon): > 50 µM
GI50 (BT-549 breast): 14.9 µM
TGI (BT-549 breast): 43.6 µM
GI50 (SF-295 CNS): > 50 µM
TGI (SF-295 CNS): > 50 µM
GI50 (SR leukemia): 1.41 µM
TGI (SR leukemia): 34.2 µM
GI50 (HS 578T breast): 19.7 µM
TGI (HS 578T breast): > 50 µM
GI50 (HCT-15 colon): > 50 µM
TGI (HCT-15 colon): > 50 µM
GI50 (SNB-75 CNS): 9.45 µM
TGI (SNB-75 CNS): > 50 µM
GI50 (DU-145 prostate): > 50 µM
TGI (DU-145 prostate): > 50 µM
GI50 (HCT-116 colon): 21.9 µM
TGI (HCT-116 colon): > 50 µM
GI50 (NCI-H522 lung): 16.1 µM
TGI (NCI-H522 lung): > 50 µM
GI50 (OVCAR-8 ovarian): 30.4 µM
TGI (OVCAR-8 ovarian): > 50 µM
GI50 (SN12C renal): 7.73 µM
TGI (SN12C renal): 19.2 µM
GI50 (IGROV1 ovarian): 28.9 µM
TGI (IGROV1 ovarian): > 50 µM
GI50 (A498 renal): > 50 µM
TGI (A498 renal): > 50 µM
GI50 (EKVX NSCLC): > 50 µM
TGI (EKVX NSCLC): > 50 µM
GI50 (NCI-H23 lung): > 50 µM
TGI (NCI-H23 lung): > 50 µM
GI50 (LOX IMVI melanoma): 25.7 µM
TGI (LOX IMVI melanoma): > 50 µM
GI50 (SF-268 CNS): 16.3 µM
TGI (SF-268 CNS): > 50 µM
GI50 (MDA-MB-231 breast): 9.65 µM
TGI (MDA-MB-231 breast): 31.1 µM
GI50 (RPMI-8226 leukemia): 8.67 µM
TGI (RPMI-8226 leukemia): 21.1 µM
GI50 (HT29 colon): > 50 µM
TGI (HT29 colon): > 50 µM

Oc1cc2cccc[n+]2c2cc(Cl)ccc12
GI50 (CAKI-1 renal): 65.9 µM
GI50 (MDA-MB-435): 14.9 µM
TGI (MDA-MB-435): 28.1 µM
GI50 (NCI-H226 lung): 81 µM
GI50 (HOP-92 NSCLC): 5.06 µM
TGI (HOP-92 NSCLC): 9.88 µM
GI50 (UO-31 renal): 57.9 µM
GI50 (MOLT-4 leukemia): 57.3 µM
GI50 (COLO 205 colon): 56.9 µM
GI50 (BT-549 breast): 78 µM
GI50 (SR leukemia): 48.4 µM
GI50 (HS 578T breast): 84.5 µM
GI50 (SNB-75 CNS): 91.5 µM
GI50 (HCC-2998 colon): 83.3 µM
GI50 (HCT-116 colon): 60.3 µM
GI50 (NCI-H522 lung): 86.3 µM
GI50 (OVCAR-8 ovarian): 92.3 µM
GI50 (SN12C renal): 45.2 µM
GI50 (A498 renal): 18.2 µM
TGI (A498 renal): 32.4 µM
GI50 (SF-268 CNS): 56.3 µM
GI50 (MDA-MB-231 breast): 29.2 µM
GI50 (CCRF-CEM leukemia): 35.9 µM
GI50 (RPMI-8226 leukemia): 57 µM
GI50 (HT29 colon): 71 µM
